Results on eight molecules are retold here after ChEMBL document CHEMBL3124887, “Synthesis and anti-inflammatory activity of aromatic glucosinolates” (2013).

Molecules are shown by their SMILES.

What all share (assay type): functional
Experiment [1] deals with THP-1. Kind of experiment: Antiinflammatory activity in human THP1 cells assessed as inhibition of LPS-induced TNF-alpha release measured as TNF-alpha level at 0.1 uM after 4hrs by ELISA relative to control.
Experiment [2] relates to THP-1. Kind of experiment: Antiinflammatory activity in human THP1 cells assessed as inhibition of LPS-induced TNF-alpha release measured as TNF-alpha level at 0.5 uM after 4hrs by ELISA relative to control.
In experiment [3] the test system is THP-1. Kind of experiment: Antiinflammatory activity in human THP1 cells assessed as inhibition of LPS-induced TNF-alpha release measured as TNF-alpha level at 5 uM after 4hrs by ELISA relative to control.
The subject of experiment [4] is THP-1. The experiment is described as follows: Antiinflammatory activity in human THP1 cells assessed as inhibition of LPS-induced TNF-alpha release measured as TNF-alpha level at 10 uM after 4hrs by ELISA relative to control.
Experiment [5] has as its system THP-1. The experiment is described as follows: Antiinflammatory activity in human THP1 cells assessed as inhibition of LPS-induced TNF-alpha release measured as TNF-alpha level at 15 uM after 4hrs by ELISA relative to control.
For experiment [6], the system named is THP-1. Kind of experiment: Antiinflammatory activity in human THP1 cells assessed as inhibition of LPS-induced TNF-alpha release measured as TNF-alpha level at 1 uM after 4hrs by ELISA relative to control.

With `O=S(=O)([O-])O/N=C(\S[C@@H]1O[C@H](CO)[C@@H](O)[C@H](O)[C@H]1O)c1ccccc1.[K+]`, the Activity in the experiment with THP-1 [1] worked out at 231.15 pg/mL; in the experiment on THP-1 [2] it was 194.44 pg/mL; with THP-1 [3], 166.58 pg/mL; in the experiment with THP-1 [4], 144.15 pg/mL; in the experiment with THP-1 [5], 103.57 pg/mL.

Regarding `O=S(=O)([O-])O/N=C(/Cc1ccccc1)S[C@@H]1O[C@H](CO)[C@@H](O)[C@H](O)[C@H]1O.[K+]`, the Activity came to 248.4 pg/mL in the experiment on THP-1 [6], 275.48 pg/mL with THP-1 [1], 206.65 pg/mL in the experiment with THP-1 [4] and 201.87 pg/mL in the experiment on THP-1 [5].

As to `O=S(=O)([O-])O/N=C(/CCc1ccccc1)S[C@@H]1O[C@H](CO)[C@@H](O)[C@H](O)[C@H]1O.[K+]`, the Activity in the experiment on THP-1 [6] was determined as 138.43 pg/mL; in the experiment on THP-1 [3] it was 115.25 pg/mL; in the experiment with THP-1 [4] it was 96.86 pg/mL; in the experiment on THP-1 [5], 74.76 pg/mL.

In the case of `O=S(=O)([O-])O/N=C(/C=C/c1ccccc1)S[C@@H]1O[C@H](CO)[C@@H](O)[C@H](O)[C@H]1O.[K+]`, the Activity was 149.06 pg/mL in the experiment with THP-1 [6], 122.91 pg/mL in the experiment with THP-1 [4] and 79.23 pg/mL in the experiment on THP-1 [5].

Turning to `COc1ccc(/C(=N/OS(=O)(=O)[O-])S[C@@H]2O[C@H](CO)[C@@H](O)[C@H](O)[C@H]2O)cc1OC.[K+]`, the Activity with THP-1 [6] was determined as 144.57 pg/mL; in the experiment on THP-1 [2], 161.76 pg/mL; with THP-1 [3], 128.21 pg/mL; in the experiment with THP-1 [4], 93.1 pg/mL; in the experiment with THP-1 [5], 69.2 pg/mL.

With `O=S(=O)([O-])O/N=C(\S[C@@H]1O[C@H](CO)[C@@H](O)[C@H](O)[C@H]1O)c1cccc(Cl)c1Cl.[K+]`, the Activity came out at 162 pg/mL with THP-1 [3], 157.09 pg/mL with THP-1 [4] and 114.17 pg/mL with THP-1 [5].

As for `O=S(=O)([O-])O/N=C(\S[C@@H]1O[C@H](CO)[C@@H](O)[C@H](O)[C@H]1O)c1ccc(Br)cc1.[K+]`, the Activity in the experiment on THP-1 [1] came out at 165.27 pg/mL; with THP-1 [3] it was 173.17 pg/mL; with THP-1 [4], 122.04 pg/mL; with THP-1 [5] it was 111.1 pg/mL.

With `Oc1cc(O)c2c(c1)OC(c1ccc(O)c(O)c1)C(O)C2` (stereo unspecified) [CATECHIN], the results for the Activity in the experiment on THP-1 [2], with THP-1 [3] and with THP-1 [5] were 303.98 pg/mL, 282.65 pg/mL and 255.94 pg/mL, respectively.
